How the values were obtained:
[1] = tested on: ALK tyrosine kinase receptor (Homo sapiens), Q9UM73 [C1156Y]; conditions: Compound concentration 100.0 nM
[2] = target: Mitogen-activated protein kinase 4 (Homo sapiens) (UniProt P31152); conditions: Compound concentration 100.0 nM
[3] = target: Mitogen-activated protein kinase 15 (Homo sapiens) (UniProt Q8TD08); conditions: Compound concentration 100.0 nM
[4] = tested on: Receptor-type tyrosine-protein kinase FLT3 (Homo sapiens), P36888 [UNDEFINED MUTATION]; conditions: Compound concentration 100.0 nM
[5] = tested on: Receptor-type tyrosine-protein kinase FLT3 (Homo sapiens), P36888 [R834Q]; conditions: Compound concentration 100.0 nM
[6] = target: Cyclin-G-associated kinase (Homo sapiens) (UniProt O14976); conditions: Compound concentration 100.0 nM
[7] = target: Mitogen-activated protein kinase kinase kinase 13 (Homo sapiens) (UniProt O43283); conditions: Compound concentration 100.0 nM
[8] = target: Serine/threonine-protein kinase MARK2 (Homo sapiens) (UniProt Q7KZI7); conditions: Compound concentration 100.0 nM
[9] = target: Dual specificity mitogen-activated protein kinase kinase 2 (Homo sapiens) (UniProt P36507); conditions: Compound concentration 100.0 nM
[10] = target: Serine/threonine-protein kinase Nek1 (Homo sapiens) (UniProt Q96PY6); conditions: Compound concentration 100.0 nM
[11] = target: Cyclin-dependent kinase 15 (Homo sapiens) (UniProt Q96Q40); conditions: Compound concentration 100.0 nM
[12] = tested on: Phosphatidylinositol 4,5-bisphosphate 3-kinase catalytic subunit alpha isoform (Homo sapiens), P42336 [E542K]; conditions: Compound concentration 100.0 nM
[13] = target: cAMP-dependent protein kinase catalytic subunit PRKX (Homo sapiens) (UniProt P51817); conditions: Compound concentration 100.0 nM
[14] = target: SRSF protein kinase 1 (Homo sapiens) (UniProt Q96SB4); conditions: Compound concentration 100.0 nM
[15] = target: Angiopoietin-1 receptor (Homo sapiens) (UniProt Q02763); conditions: Compound concentration 100.0 nM
[16] = target: TRAF2 and NCK-interacting protein kinase (Homo sapiens) (UniProt Q9UKE5); conditions: Compound concentration 100.0 nM
[17] = target: Non-receptor tyrosine-protein kinase TYK2 (Homo sapiens) (UniProt P29597); conditions: Compound concentration 100.0 nM
[18] = target: T1, Tyrosine-protein kinase receptor TYRO3 (Homo sapiens) (UniProt Q06418); conditions: Compound concentration 100.0 nM
T1 sequence (whole entry): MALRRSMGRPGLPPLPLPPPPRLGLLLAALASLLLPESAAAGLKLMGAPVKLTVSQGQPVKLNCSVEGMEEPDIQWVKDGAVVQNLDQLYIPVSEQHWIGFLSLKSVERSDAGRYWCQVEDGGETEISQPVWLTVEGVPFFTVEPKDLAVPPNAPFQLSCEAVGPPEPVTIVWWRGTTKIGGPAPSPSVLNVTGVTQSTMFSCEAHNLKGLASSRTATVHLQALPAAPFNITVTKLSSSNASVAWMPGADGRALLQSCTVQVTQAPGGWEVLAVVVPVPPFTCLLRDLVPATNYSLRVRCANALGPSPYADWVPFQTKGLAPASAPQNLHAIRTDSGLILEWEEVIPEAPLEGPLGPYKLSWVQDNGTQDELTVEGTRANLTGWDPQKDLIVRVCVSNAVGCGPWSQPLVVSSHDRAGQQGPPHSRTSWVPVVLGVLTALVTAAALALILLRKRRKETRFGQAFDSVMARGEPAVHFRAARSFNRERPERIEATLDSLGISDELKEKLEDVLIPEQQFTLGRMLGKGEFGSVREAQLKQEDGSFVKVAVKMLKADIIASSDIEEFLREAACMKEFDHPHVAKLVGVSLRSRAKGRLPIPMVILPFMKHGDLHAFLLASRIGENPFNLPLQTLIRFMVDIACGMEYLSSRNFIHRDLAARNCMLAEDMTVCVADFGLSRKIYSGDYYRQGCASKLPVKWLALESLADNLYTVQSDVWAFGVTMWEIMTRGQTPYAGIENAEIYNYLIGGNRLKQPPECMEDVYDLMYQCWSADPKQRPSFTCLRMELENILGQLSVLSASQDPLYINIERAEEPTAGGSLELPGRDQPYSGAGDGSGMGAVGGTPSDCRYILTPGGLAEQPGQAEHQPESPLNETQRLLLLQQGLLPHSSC

[19] = target: 5-hydroxytryptamine receptor 6 (Homo sapiens) (UniProt P50406); conditions: Compound concentration 10.0 uM
[20] = target: Alpha-2B adrenergic receptor (Homo sapiens) (UniProt P18089); conditions: Compound concentration 10.0 uM

Dual specificity mitogen-activated protein kinase kinase 2 (Homo sapiens), sequence (P36507 whole entry): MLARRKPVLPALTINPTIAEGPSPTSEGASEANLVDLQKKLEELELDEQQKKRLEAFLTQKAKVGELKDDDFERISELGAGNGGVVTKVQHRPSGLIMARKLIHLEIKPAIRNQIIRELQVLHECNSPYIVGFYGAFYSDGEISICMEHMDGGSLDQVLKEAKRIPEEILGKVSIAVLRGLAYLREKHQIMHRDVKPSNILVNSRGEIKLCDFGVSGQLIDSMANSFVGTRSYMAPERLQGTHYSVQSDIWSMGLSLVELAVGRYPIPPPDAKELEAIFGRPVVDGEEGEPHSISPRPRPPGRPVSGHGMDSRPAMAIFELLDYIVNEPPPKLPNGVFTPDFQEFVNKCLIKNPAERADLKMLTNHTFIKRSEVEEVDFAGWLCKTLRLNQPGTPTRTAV
Serine/threonine-protein kinase MARK2 (Homo sapiens), sequence (Q7KZI7 whole entry): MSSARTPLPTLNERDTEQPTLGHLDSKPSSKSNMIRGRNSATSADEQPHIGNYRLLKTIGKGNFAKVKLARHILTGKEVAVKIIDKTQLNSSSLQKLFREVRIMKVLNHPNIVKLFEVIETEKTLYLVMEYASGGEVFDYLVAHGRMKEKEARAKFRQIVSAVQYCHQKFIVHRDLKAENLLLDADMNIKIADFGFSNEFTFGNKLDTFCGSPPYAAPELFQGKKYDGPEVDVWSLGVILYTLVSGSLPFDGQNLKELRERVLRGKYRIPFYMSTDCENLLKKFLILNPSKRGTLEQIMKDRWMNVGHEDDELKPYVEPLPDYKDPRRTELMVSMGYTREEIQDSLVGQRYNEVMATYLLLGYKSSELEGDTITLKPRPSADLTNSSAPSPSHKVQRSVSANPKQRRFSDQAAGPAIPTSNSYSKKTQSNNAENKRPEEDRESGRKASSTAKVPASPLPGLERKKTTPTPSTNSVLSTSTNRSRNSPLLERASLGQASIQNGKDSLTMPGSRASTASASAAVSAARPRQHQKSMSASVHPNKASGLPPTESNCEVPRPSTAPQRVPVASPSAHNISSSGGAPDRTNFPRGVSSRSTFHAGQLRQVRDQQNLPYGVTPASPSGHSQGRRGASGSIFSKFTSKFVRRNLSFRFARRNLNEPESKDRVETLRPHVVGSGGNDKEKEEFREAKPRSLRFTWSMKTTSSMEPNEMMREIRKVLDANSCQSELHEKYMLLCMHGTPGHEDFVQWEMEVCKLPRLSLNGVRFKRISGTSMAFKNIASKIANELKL
Phosphatidylinositol 4,5-bisphosphate 3-kinase catalytic subunit alpha isoform (Homo sapiens), P42336 [E542K], sequence (P42336 whole entry E542K, canonical isoform): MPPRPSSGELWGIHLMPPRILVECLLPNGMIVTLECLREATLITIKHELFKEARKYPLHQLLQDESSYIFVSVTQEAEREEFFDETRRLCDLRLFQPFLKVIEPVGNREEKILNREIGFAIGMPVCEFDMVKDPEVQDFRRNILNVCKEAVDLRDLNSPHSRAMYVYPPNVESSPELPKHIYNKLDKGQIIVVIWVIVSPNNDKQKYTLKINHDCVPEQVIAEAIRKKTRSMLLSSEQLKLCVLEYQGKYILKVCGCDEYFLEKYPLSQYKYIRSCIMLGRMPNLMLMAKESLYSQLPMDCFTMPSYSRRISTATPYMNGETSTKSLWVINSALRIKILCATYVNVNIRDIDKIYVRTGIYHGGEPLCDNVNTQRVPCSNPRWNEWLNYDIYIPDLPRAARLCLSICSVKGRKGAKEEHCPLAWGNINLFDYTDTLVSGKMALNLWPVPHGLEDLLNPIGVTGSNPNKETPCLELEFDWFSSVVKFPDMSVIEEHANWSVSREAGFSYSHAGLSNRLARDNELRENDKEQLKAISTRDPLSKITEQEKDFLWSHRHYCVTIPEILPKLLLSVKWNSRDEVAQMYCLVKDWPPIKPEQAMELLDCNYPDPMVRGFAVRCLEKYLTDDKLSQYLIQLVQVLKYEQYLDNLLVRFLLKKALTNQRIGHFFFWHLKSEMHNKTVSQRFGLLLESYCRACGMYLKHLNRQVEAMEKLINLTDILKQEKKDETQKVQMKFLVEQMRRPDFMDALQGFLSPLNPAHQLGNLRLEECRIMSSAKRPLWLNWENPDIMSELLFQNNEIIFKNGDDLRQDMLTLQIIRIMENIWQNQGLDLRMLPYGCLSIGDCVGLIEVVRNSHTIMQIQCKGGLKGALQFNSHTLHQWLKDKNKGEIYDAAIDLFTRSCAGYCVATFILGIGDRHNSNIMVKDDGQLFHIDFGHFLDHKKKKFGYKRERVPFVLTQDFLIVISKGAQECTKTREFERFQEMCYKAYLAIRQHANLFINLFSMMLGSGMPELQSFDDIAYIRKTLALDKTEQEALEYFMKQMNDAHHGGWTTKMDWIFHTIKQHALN
SRSF protein kinase 1 (Homo sapiens), sequence (Q96SB4 whole entry): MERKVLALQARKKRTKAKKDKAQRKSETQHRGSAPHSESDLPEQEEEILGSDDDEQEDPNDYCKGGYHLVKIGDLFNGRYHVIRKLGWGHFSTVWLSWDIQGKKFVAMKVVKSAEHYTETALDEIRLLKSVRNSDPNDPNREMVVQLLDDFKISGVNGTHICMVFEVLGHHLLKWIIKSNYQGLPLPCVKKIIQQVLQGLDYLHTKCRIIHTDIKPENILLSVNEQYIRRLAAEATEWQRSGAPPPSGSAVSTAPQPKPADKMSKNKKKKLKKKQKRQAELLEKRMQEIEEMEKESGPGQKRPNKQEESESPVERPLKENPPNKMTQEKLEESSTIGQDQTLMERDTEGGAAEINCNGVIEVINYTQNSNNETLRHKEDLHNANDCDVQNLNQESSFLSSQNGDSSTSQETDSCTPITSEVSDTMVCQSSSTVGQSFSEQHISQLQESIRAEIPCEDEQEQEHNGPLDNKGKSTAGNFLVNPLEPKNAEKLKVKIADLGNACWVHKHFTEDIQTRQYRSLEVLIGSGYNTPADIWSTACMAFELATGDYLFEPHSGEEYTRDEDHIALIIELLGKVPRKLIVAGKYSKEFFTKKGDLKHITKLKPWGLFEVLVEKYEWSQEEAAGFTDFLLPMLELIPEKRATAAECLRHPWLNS
Mitogen-activated protein kinase kinase kinase 13 (Homo sapiens), sequence (O43283 whole entry): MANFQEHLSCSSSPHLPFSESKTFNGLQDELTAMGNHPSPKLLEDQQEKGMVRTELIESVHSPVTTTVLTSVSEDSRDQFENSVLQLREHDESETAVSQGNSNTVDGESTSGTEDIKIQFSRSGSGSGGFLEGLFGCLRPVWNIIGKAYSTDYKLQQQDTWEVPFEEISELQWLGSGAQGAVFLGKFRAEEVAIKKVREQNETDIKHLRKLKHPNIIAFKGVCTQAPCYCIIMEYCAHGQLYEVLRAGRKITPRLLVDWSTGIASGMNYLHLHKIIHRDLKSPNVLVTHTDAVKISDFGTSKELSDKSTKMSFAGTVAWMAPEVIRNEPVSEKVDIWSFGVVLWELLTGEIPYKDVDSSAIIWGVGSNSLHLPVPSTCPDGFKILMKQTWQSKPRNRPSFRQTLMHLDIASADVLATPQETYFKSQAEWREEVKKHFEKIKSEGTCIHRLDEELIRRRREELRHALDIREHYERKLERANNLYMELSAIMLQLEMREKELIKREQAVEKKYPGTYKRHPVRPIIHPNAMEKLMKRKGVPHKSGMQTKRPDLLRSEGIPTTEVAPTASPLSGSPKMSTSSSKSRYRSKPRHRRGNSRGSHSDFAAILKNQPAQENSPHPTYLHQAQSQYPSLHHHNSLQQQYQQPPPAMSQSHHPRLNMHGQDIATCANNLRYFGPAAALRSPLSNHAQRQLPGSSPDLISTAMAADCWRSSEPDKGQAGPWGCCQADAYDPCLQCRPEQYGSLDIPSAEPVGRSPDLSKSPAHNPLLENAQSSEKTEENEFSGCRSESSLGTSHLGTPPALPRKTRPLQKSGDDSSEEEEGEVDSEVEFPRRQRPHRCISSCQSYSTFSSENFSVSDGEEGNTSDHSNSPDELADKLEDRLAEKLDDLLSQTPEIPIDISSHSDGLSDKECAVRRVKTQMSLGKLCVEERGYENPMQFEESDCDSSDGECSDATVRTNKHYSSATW
Cyclin-dependent kinase 15 (Homo sapiens), sequence (Q96Q40 whole entry, canonical isoform): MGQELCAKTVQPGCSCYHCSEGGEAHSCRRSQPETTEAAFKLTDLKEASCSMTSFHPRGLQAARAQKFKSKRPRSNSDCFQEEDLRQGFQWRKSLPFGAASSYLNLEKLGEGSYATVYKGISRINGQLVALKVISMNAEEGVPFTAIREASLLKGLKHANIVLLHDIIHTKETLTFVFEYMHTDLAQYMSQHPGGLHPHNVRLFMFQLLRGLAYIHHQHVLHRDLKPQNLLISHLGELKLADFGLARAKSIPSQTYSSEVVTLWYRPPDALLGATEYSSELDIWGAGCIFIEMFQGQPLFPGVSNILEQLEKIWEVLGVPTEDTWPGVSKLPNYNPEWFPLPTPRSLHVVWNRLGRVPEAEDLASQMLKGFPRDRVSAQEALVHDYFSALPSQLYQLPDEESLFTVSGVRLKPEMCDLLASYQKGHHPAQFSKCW
Mitogen-activated protein kinase 4 (Homo sapiens), sequence (P31152 whole entry): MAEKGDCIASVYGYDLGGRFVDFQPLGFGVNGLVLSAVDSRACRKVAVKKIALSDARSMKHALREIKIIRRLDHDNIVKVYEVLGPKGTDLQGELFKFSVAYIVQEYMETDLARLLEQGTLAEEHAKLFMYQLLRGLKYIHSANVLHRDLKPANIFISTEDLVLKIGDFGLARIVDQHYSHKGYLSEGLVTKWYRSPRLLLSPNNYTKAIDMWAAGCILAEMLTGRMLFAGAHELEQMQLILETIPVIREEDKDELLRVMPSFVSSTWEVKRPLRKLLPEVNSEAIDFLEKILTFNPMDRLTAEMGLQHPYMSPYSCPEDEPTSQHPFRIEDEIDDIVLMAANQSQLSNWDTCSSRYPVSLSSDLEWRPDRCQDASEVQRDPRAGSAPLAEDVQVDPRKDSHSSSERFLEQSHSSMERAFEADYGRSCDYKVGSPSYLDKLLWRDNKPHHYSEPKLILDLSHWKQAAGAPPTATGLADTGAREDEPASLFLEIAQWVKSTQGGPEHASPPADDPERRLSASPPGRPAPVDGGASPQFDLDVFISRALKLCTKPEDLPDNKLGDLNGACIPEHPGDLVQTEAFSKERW

Cn1cc(Cl)c2c(Oc3c(F)cc(Nc4cc(Cl)nc(N)n4)cc3F)ccnc21 [BAY-4900]
inactive: residual activity [1] 100% | residual activity [2] 100% | residual activity [3] 100% | residual activity [4] 61% | residual activity [5] 83% | residual activity [6] 100% | residual activity [7] 99% | residual activity [8] 100% | residual activity [9] 100% | residual activity [10] 100% | residual activity [11] 94% | residual activity [12] 89% | residual activity [13] 100% | residual activity [14] 85% | residual activity [15] 100% | residual activity [16] 96% | residual activity [17] 85% | residual activity [18] 80% | inhibition [19] -1.64% | inhibition [20] -4.05%

Cc1c[nH]c2nccc(Oc3c(F)cc(Nc4cc(Cl)nc(N)n4)cc3F)c12 [BAY-549]
inactive: residual activity [1] 100% | residual activity [2] 81% | residual activity [3] 100% | residual activity [4] 54% | residual activity [5] 85% | residual activity [6] 100% | residual activity [7] 81% | residual activity [8] 100% | residual activity [9] 91% | residual activity [10] 96% | residual activity [11] 76% | residual activity [12] 85% | residual activity [13] 77% | residual activity [14] 100% | residual activity [15] 95% | residual activity [16] 100% | residual activity [17] 89% | residual activity [18] 100% | inhibition [19] -1.5% | inhibition [20] 11.7%
